In ChEMBL document CHEMBL1201862, “PubChem BioAssay data set” (2004):
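Growth conditions: 96-well plates. Treatment: test compound, 48 hours, 5 concentrations. Analysis: linear interpolation between bracketing concentrations; unreached endpoints set to highest concentration. GI50 is the concentration that inhibits growth by half.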 Active and inactive are the calls of the source. Rule as the data show it: active = GI50 up to about 1.1 µM and inactive = higher.

Columns and labels:
Experiment in all cases: NCI anticancer screen, dose series, 48 h
SR = test system: SR
RXF 393 = test system: RXF 393
HOP-62 = test system: HOP-62
K562 = test system: K562
NCI-H522 = test system: NCI-H522
SK-OV-3 = test system: SK-OV-3
786-0 = test system: 786-0
UACC-62 = test system: UACC-62
CCRF-CEM = test system: CCRF-CEM
MDA-MB-435 = test system: MDA-MB-435
SF-539 = test system: SF-539
A498 = test system: A498
HCC 2998 = test system: HCC 2998
A549 = test system: A549
MDA-MB-231 = test system: MDA-MB-231
NCI/ADR-RES = test system: NCI/ADR-RES
MDA-N = test system: MDA-N
OVCAR-3 = test system: OVCAR-3
NCI-H460 = test system: NCI-H460
RPMI-8226 = test system: RPMI-8226

| SMILES | GI50 (SR) | GI50 (RXF 393) | GI50 (HOP-62) | GI50 (K562) | GI50 (NCI-H522) | GI50 (SK-OV-3) | GI50 (786-0) | GI50 (UACC-62) | GI50 (CCRF-CEM) | GI50 (MDA-MB-435) | GI50 (SF-539) | GI50 (A498) | GI50 (HCC 2998) | GI50 (A549) | GI50 (MDA-MB-231) | GI50 (NCI/ADR-RES) | GI50 (MDA-N) | GI50 (OVCAR-3) | GI50 (NCI-H460) | GI50 (RPMI-8226) |
| --- | --- | --- | --- | --- | --- | --- | --- | --- | --- | --- | --- | --- | --- | --- | --- | --- | --- | --- | --- | --- |
| COc1c(-c2ccc(F)cc2)oc2c(CC(=O)O)cccc2c1=O | > 100 µM (inactive) | > 100 µM (inactive) | > 100 µM (inactive) | > 100 µM (inactive) | > 100 µM (inactive) | > 100 µM (inactive) | > 100 µM (inactive) | > 100 µM (inactive) | > 100 µM (inactive) | > 100 µM (inactive) | > 100 µM (inactive) | > 100 µM (inactive) | > 100 µM (inactive) | > 100 µM (inactive) | > 100 µM (inactive) | > 100 µM (inactive) | > 100 µM (inactive) | > 100 µM (inactive) | – | – |
| O=C1C=Cc2c(I)sc(I)c21 | 4 µM (inactive) | 20.6 µM (inactive) | 38.6 µM (inactive) | 14.3 µM (inactive) | 1.99 µM (inactive) | 89.7 µM (inactive) | 10.3 µM (inactive) | 28.8 µM (inactive) | 2.88 µM (inactive) | 19.4 µM (inactive) | 25.6 µM (inactive) | 48.5 µM (inactive) | 18.4 µM (inactive) | 26.2 µM (inactive) | 29.9 µM (inactive) | 23.3 µM (inactive) | 24.9 µM (inactive) | 19.3 µM (inactive) | > 100 µM (inactive) | – |
| COc1cc(C2S/C(=C/c3ccccc3)C(=O)N2c2ccc(Cl)c(Cl)c2)cc(OC)c1OC (stereo not drawn) | 26 µM (inactive) | > 51.8 µM (inactive) | 47.3 µM (inactive) | 15.2 µM (inactive) | 14.1 µM (inactive) | > 91 µM (inactive) | 70.6 µM (inactive) | 0.78 µM (active) | 1.36 µM (inactive) | 7.29 µM (inactive) | – | > 42.4 µM (inactive) | 58.9 µM (inactive) | 53.8 µM (inactive) | > 50.8 µM (inactive) | 32.6 µM (inactive) | 19.8 µM (inactive) | > 57.1 µM (inactive) | 30.7 µM (inactive) | 46.3 µM (inactive) |
| c1cc(-c2csc(-c3ccsc3)c2)cs1 | > 100 µM (inactive) | > 100 µM (inactive) | 71.6 µM (inactive) | > 100 µM (inactive) | – | > 100 µM (inactive) | > 100 µM (inactive) | > 100 µM (inactive) | > 100 µM (inactive) | > 100 µM (inactive) | 36.5 µM (inactive) | > 100 µM (inactive) | 42.5 µM (inactive) | > 100 µM (inactive) | > 100 µM (inactive) | > 100 µM (inactive) | > 100 µM (inactive) | 52.1 µM (inactive) | > 100 µM (inactive) | > 100 µM (inactive) |
| Nc1ccc(/N=N/c2c(S(=O)(=O)O)cc3ccccc3c2S(=O)(=O)O)cc1 | > 100 µM (inactive) | > 100 µM (inactive) | > 100 µM (inactive) | > 100 µM (inactive) | > 100 µM (inactive) | – | > 100 µM (inactive) | > 100 µM (inactive) | 34.8 µM (inactive) | > 100 µM (inactive) | – | > 100 µM (inactive) | > 100 µM (inactive) | > 100 µM (inactive) | > 100 µM (inactive) | > 100 µM (inactive) | > 100 µM (inactive) | > 100 µM (inactive) | > 100 µM (inactive) | – |
| Nc1nc(N)c2c3c(cnc2n1)CC(c1ccccc1)CC3 (stereo not drawn) | 10.6 µM (inactive) | 17.7 µM (inactive) | 21.6 µM (inactive) | 0.875 µM (active) | 14.4 µM (inactive) | 21.5 µM (inactive) | 7.83 µM (inactive) | 1.11 µM (active) | – | 6.76 µM (inactive) | 14.3 µM (inactive) | 24.8 µM (inactive) | 34 µM (inactive) | 2.03 µM (inactive) | 21.4 µM (inactive) | 20.3 µM (inactive) | 3.7 µM (inactive) | 31 µM (inactive) | 3.66 µM (inactive) | > 100 µM (inactive) |
| COC(=O)C(CCc1ccccc1I)C1=CCC2(CC1)OCCO2 (stereo not drawn) | 36.2 µM (inactive) | 17.9 µM (inactive) | 70.1 µM (inactive) | 66.4 µM (inactive) | 18.7 µM (inactive) | > 100 µM (inactive) | 51.3 µM (inactive) | 81.5 µM (inactive) | 14 µM (inactive) | 27.1 µM (inactive) | > 100 µM (inactive) | > 100 µM (inactive) | 33.6 µM (inactive) | 31 µM (inactive) | 65.5 µM (inactive) | 24.6 µM (inactive) | 24.2 µM (inactive) | 29.4 µM (inactive) | 65.8 µM (inactive) | 62.2 µM (inactive) |
| N#C/C(N)=C(C#N)/N=C/Nc1ccccc1N | > 100 µM (inactive) | – | > 100 µM (inactive) | > 100 µM (inactive) | > 100 µM (inactive) | > 100 µM (inactive) | > 100 µM (inactive) | > 100 µM (inactive) | > 100 µM (inactive) | > 100 µM (inactive) | > 100 µM (inactive) | > 100 µM (inactive) | > 100 µM (inactive) | > 100 µM (inactive) | > 100 µM (inactive) | > 100 µM (inactive) | > 100 µM (inactive) | > 100 µM (inactive) | > 100 µM (inactive) | > 100 µM (inactive) |
| N#CCCN(C(=O)Nc1ccc(NC(=O)N(CCC#N)c2ccccc2)cc1)c1ccccc1 | > 100 µM (inactive) | 92.7 µM (inactive) | > 100 µM (inactive) | > 100 µM (inactive) | > 100 µM (inactive) | > 100 µM (inactive) | > 100 µM (inactive) | > 100 µM (inactive) | – | > 100 µM (inactive) | – | > 100 µM (inactive) | > 100 µM (inactive) | > 100 µM (inactive) | > 100 µM (inactive) | > 100 µM (inactive) | > 100 µM (inactive) | > 100 µM (inactive) | > 100 µM (inactive) | > 100 µM (inactive) |
| Cc1nc2c(sc(=S)n2-c2ccccc2)c2nc3ncccc3n12 | > 100 µM (inactive) | 34.8 µM (inactive) | 25 µM (inactive) | > 100 µM (inactive) | > 100 µM (inactive) | 33 µM (inactive) | 35.2 µM (inactive) | > 100 µM (inactive) | > 100 µM (inactive) | > 100 µM (inactive) | – | > 100 µM (inactive) | > 100 µM (inactive) | > 100 µM (inactive) | 45.1 µM (inactive) | > 100 µM (inactive) | > 100 µM (inactive) | > 100 µM (inactive) | > 100 µM (inactive) | > 100 µM (inactive) |
| COc1cccc(C2c3cc4c(cc3OC(C)(N3CCCC3)C2C)OCO4)c1 (stereo not drawn) | 9.48 µM (inactive) | 14 µM (inactive) | 6.62 µM (inactive) | 58.3 µM (inactive) | 2.37 µM (inactive) | 11.9 µM (inactive) | 26.1 µM (inactive) | 5.38 µM (inactive) | 32.7 µM (inactive) | 4.19 µM (inactive) | 13.9 µM (inactive) | 14 µM (inactive) | 13.1 µM (inactive) | 7.55 µM (inactive) | 7.78 µM (inactive) | 6.9 µM (inactive) | 2.13 µM (inactive) | 4.89 µM (inactive) | 9.62 µM (inactive) | – |
| O=c1oc2c([N+](=O)[O-])cc([N+](=O)[O-])cc2c2ccccc12 | > 100 µM (inactive) | > 100 µM (inactive) | > 100 µM (inactive) | > 100 µM (inactive) | > 100 µM (inactive) | – | > 100 µM (inactive) | > 100 µM (inactive) | > 100 µM (inactive) | > 100 µM (inactive) | > 100 µM (inactive) | > 100 µM (inactive) | > 100 µM (inactive) | > 100 µM (inactive) | > 100 µM (inactive) | > 100 µM (inactive) | > 100 µM (inactive) | > 100 µM (inactive) | > 100 µM (inactive) | > 100 µM (inactive) |
| CC(C)NC(NC(C)C)=C(S(=O)(=O)C(F)(F)C(F)(F)C(F)(F)C(F)(F)F)S(=O)(=O)C(F)(F)C(F)(F)C(F)(F)C(F)(F)F | > 100 µM (inactive) | – | > 100 µM (inactive) | > 100 µM (inactive) | > 100 µM (inactive) | > 100 µM (inactive) | > 100 µM (inactive) | > 100 µM (inactive) | > 100 µM (inactive) | > 100 µM (inactive) | > 100 µM (inactive) | > 100 µM (inactive) | > 100 µM (inactive) | > 100 µM (inactive) | > 100 µM (inactive) | > 100 µM (inactive) | > 100 µM (inactive) | > 100 µM (inactive) | > 100 µM (inactive) | > 100 µM (inactive) |
| COc1ccc(C(=O)O[C@H]2CC[C@@]3(C)[C@@H]4CC[C@H]5[C@]6(O)C[C@H](O)[C@@]7(O)[C@@H](CN8C[C@@H](C)CC[C@H]8[C@@]7(C)O)[C@]6(O)C[C@@]53OC24O)cc1OC [VERATRIDINE] | 74.8 µM (inactive) | 57.5 µM (inactive) | > 100 µM (inactive) | > 100 µM (inactive) | > 100 µM (inactive) | > 100 µM (inactive) | > 100 µM (inactive) | > 100 µM (inactive) | – | > 100 µM (inactive) | 82 µM (inactive) | > 100 µM (inactive) | 46.1 µM (inactive) | > 100 µM (inactive) | > 100 µM (inactive) | > 100 µM (inactive) | > 100 µM (inactive) | > 100 µM (inactive) | 75.2 µM (inactive) | 80.4 µM (inactive) |
